Laboratory results taken from patent publication US11851413B1, “1,3-benzothiazol-2-yl-N'-[(naphthalene-1-carbonyl)oxy]ethanimidamide as an antitumor and antimicrobial compound” (KING FAISAL UNIVERSITY, priority 2023, dated 2023).

Columns and labels:
[1] = tested on: human prostate cancer cells (PC3); assay: Cytotoxicity by SRB assay, PC3 cells; type: cell-based; conditions: 0.01 μM to 100 μM, 72 h
Experimental: (§1) The human prostate cancer cells (PC3) and human osteosarcoma cells (MG-63) were obtained from Nawah Scientific Inc. (Mokatam, Cairo, Egypt) and cultured in DMEM (Dulbecco's modified eagle's medium), Gibco, USA, supplemented with fetal bovine serum (FBS) at a concentration of 10% and 100 U/mL of penicillin and streptomycin (PS). The Cells were incubated at 37° C. in a humidified environment that contained 5% CO2. Cells were seeded in 96-well plates as aliquots of 100 μL cell suspension and incubated in a complete media for 24 h. afterward, cells were treated with N′-(1-naphthoyloxy)-2-(benzo[d]thiazol-2-yl)acetimidamide at diverse concentrations ranging from 0.01 μM to 100 μM for 72 h. Then, cells were fixed at 4° C. for one hour with 150 μL of 10% trichloroacetic acid (TCA). After washing the cells five times with distilled water, 70 μL of sulforhodamine (SRB) solution (0.4% w/v) was added and incubated for 10 min at room temperature in a dark place. […] Then, 150 μL of Tris pH 10.5 (10 mM) was added, and the absorbance was measured at 540 nm using a BMG LABTECH®-FLUOstar Omega microplate reader (Ortenberg, Germany). Half maximal inhibitory concentrations (IC50) values were calculated for each experiment using GraphPad Prism 6 software. […] The inhibition was calculated using the following equation: Inhibition%=100−Average Viability

[2] = tested on: human osteosarcoma cells (MG-63); assay: Cytotoxicity by SRB assay, MG-63 cells; type: cell-based; conditions: 0.01 μM to 100 μM, 72 h
Experimental: as §1

In the case of `N/C(Cc1nc2ccccc2s1)=N\OC(=O)c1cccc2ccccc12` [1,3-benzothiazol-2-yl-N′-[(naphthalene-1-carbonyl)oxy]ethanimidamide], the “antiproliferative activity against prostate cancer cells (PC3)” value [1] is reported as “excellent antiproliferative activities”, the melting point is reported as 191 to 193 °C and the “antiproliferative activity against osteosarcoma (MG-63) cells” value [2] is reported as “excellent antiproliferative activities”.
